Source: PMC9636034 (Current Research in Food Science, 2022)

Target: α-glucosidase from yeast (Saccharomyces cerevisiae, UniProt P53341)
Experiment: Inhibition assay against α-glucosidase from yeast
Type: biochemical

Sequence of α-glucosidase from yeast (P53341 whole entry): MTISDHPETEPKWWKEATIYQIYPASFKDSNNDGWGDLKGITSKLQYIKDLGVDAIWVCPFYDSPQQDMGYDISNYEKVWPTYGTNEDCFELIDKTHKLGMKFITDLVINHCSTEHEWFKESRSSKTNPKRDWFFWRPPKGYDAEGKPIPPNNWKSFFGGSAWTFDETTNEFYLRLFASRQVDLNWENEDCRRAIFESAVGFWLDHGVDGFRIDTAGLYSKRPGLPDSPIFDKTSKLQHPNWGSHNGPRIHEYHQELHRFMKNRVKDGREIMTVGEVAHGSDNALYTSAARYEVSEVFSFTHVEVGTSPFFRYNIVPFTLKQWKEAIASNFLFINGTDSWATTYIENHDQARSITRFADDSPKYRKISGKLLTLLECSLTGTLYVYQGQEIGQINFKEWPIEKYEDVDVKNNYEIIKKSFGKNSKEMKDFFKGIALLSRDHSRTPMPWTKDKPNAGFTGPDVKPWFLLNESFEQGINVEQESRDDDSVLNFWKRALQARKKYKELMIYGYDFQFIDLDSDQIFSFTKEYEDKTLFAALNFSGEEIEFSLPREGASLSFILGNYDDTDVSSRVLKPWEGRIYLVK

Compound	IC50 [µM]
CC(=O)[C@@H]1COC(=O)[C@H]1C [Compound 2, (3S, 4S)-4-acetyl-3-methyldihydrofuran-2 (3H)-one]	193 ± 13.1
CC1=C(C)C(C)(O)OC1=O (centres unmarked) [Compound 3, 2-methyl-2-hydroxy-3,4-dimethyl-5-oxo-2,5-dihydrofuran]	> 250
